# Test results from patent publication US20260014075A1, “IONIZABLE LIPID CONTAINING BIODEGRADABLE ESTER BOND AND LIPID NANOPARTICLES COMPRISING SAME” (ST PHARM CO., LTD., priority 2022, published 2026).
# Test system: HeLa cells
# Experiment: In vitro efficacy of mFLuc mRNA-encapsulated lipid nanoparticles, luminescence
# Format: cell-based
# Conditions: 20 ng mFLuc-encapsulated LNP, 24 hours
# Experimental: To determine the efficacy of mRNA-encapsulated lipid nanoparticles in vitro, screening was performed using lipid nanoparticles synthesized with various amine head groups.
# The test was conducted by treating 20 ng of mFLuc (SEQ ID NO: 1)-encapsulated lipid nanoparticles into HeLa cells using each lipid nanoparticle synthesized with various amine headgroups (Compounds 1, 2, 4, and 5). The luminescence intensity was measured at 24 hours.
smiles,measurement,value
CCCCCC/C=C\COC(=O)CCCCCCCCN(CCCCCCCCC(=O)OC/C=C\CCCCCC)CCCN1CCN(CCCN(CCCCCCCCC(=O)OC/C=C\CCCCCC)CCCCCCCCC(=O)OC/C=C\CCCCCC)CC1 [Compound 4],Relative luminescence mean value,39970.75
CCCCCC/C=C\COC(=O)CCCCCCCCN(CCCCCCCCC(=O)OC/C=C\CCCCCC)CCN1CCN(CCCCCCCCC(=O)OC/C=C\CCCCCC)CC1 [Compound 5],Relative luminescence mean value,1022327.75
same,"expression effect (luminescence intensity), in words",highest expression effect
